From ChEMBL document CHEMBL5143671, “Discovery of (R)-(3-fluoropyrrolidin-1-yl)(6-((5-(trifluoromethyl)pyridin-2-yl)oxy)quinolin-2-yl)methanone (ABBV-318) and analogs as small molecule Nav1.7/ Nav1.8 blockers for the treatment of pain” (Bioorg Med Chem, 2022)
≈ marks a conversion by molar mass, not a printed value.

Key:
[1] = in vivo; settings: Sprague-Dawley, rat, iv
[2] = physchem; settings: phosphate buffer
[3] = in vitro; settings: dog, MDCK
[4] = target: Voltage-gated inwardly rectifying potassium channel KCNH2 (Homo sapiens, UniProt Q12809);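 note: hERG channel blockade measured by electrophysiology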
[5] = physchem; settings: octanol/water
[6] = target: Sodium channel protein type 5 subunit alpha (Homo sapiens, UniProt Q14524)
[7] = in vitro; settings: PAMPA
[8] = in vivo; settings: Sprague-Dawley, rat, po
[9] = rat, in vivo, po
[10] = in vivo; settings: Sprague-Dawley, rat, po; remark: listed apart in the source
[11] = system: MDR1; assay: in vitro; settings: dog, MDCK-MDR1
[12] = rat, microsomes, 0.5 h, 0.5 µM
[13] = human, microsomes, 0.5 h, 0.5 µM
[14] = Drug concentration in plasma of Sprague-Dawley rat model of L5/L6 spinal nerve ligation-induced neuropathic pain at 30 mg/kg, po by LC/MS analysis; format: ADME, organism-based; settings: in vivo
[15] = Drug concentration in plasma of Sprague-Dawley rat model of L5/L6 spinal nerve ligation-induced neuropathic pain at 100 mg/kg, po by LC/MS analysis; format: ADME, organism-based; settings: in vivo
[16] = target: Sodium channel protein type 9 subunit alpha (Homo sapiens, UniProt Q15858)
[17] = system: Rattus norvegicus; assay: Antiallodynic activity in Sprague-Dawley rat model of L5/L6 spinal nerve ligation-induced neuropathic pain assessed as maximal possible effect at 30 mg/kg, po; format: functional
[18] = Drug concentration in plasma of Sprague-Dawley rat model of L5/L6 spinal nerve ligation-induced neuropathic pain at 10 mg/kg, po by LC/MS analysis; format: ADME, organism-based; settings: in vivo
[19] = target: Sodium channel protein type 10 subunit alpha (Homo sapiens, UniProt Q9Y5Y9); assay: Inhibition of human Nav1.8 by FRET based membrane potential assay
[20] = Ratio of free drug concentration in brain to plasma of rat; format: ADME, cell-free; settings: brain and plasma
[21] = Drug concentration in brain of Sprague-Dawley rat model of L5/L6 spinal nerve ligation-induced neuropathic pain at 10 mg/kg, po by LC/MS analysis; format: ADME, organism-based; settings: in vivo
[22] = system: Rattus norvegicus; assay: Antiallodynic activity in Sprague-Dawley rat model of L5/L6 spinal nerve ligation-induced neuropathic pain assessed as maximal possible effect at 10 mg/kg, po; format: functional
[23] = Drug concentration in brain of Sprague-Dawley rat model of L5/L6 spinal nerve ligation-induced neuropathic pain at 30 mg/kg, po by LC/MS analysis; format: ADME, organism-based; settings: in vivo
[24] = system: Rattus norvegicus; assay: Antiallodynic activity in Sprague-Dawley rat model of L5/L6 spinal nerve ligation-induced neuropathic pain assessed as maximal possible effect at 100 mg/kg, po; format: functional
[25] = Drug concentration in brain of Sprague-Dawley rat model of L5/L6 spinal nerve ligation-induced neuropathic pain at 100 mg/kg, po by LC/MS analysis; format: ADME, organism-based; settings: in vivo
[26] = target: Sodium channel protein type 2 subunit alpha (Homo sapiens, UniProt Q99250); assay: Inhibition of recombinant human Nav1.2 expressed in HEK293 cells incubated for 3 mins by FRET based membrane potential assay; format: cell-based
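Throughout, for logD: distribution coefficient quantified using high-throughput LC-MS.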
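Throughout, for solubility: determined using a high-throughput solubility method.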

Voltage-gated inwardly rectifying potassium channel KCNH2, sequence (Q12809 whole entry): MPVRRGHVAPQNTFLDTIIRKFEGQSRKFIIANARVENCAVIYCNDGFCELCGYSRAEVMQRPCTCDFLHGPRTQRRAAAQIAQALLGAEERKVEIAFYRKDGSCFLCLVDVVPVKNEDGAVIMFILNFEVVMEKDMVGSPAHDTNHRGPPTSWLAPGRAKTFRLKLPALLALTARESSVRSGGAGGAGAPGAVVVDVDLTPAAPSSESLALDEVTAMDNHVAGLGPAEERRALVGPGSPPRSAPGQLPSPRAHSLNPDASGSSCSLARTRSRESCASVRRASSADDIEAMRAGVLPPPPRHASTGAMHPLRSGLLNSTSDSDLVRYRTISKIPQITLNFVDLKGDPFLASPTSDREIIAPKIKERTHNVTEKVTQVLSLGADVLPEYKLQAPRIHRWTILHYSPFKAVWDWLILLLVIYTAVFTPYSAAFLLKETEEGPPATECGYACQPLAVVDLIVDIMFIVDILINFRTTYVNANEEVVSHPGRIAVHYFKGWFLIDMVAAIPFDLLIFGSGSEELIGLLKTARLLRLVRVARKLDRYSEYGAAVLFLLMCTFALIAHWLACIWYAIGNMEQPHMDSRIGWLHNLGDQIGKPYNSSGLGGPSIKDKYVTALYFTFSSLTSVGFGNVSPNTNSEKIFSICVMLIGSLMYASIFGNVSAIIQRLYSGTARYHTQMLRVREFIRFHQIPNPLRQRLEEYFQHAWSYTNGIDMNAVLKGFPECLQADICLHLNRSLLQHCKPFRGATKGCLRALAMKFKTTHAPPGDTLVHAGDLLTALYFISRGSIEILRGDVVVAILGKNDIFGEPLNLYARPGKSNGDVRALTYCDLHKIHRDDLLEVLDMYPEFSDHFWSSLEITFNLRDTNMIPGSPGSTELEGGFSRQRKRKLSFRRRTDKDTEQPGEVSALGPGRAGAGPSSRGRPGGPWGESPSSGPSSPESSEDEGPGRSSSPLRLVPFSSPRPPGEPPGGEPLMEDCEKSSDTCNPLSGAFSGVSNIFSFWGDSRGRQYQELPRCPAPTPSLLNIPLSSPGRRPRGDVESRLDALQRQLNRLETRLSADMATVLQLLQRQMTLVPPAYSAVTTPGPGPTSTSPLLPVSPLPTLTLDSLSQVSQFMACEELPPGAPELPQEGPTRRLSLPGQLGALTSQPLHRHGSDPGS
Sodium channel protein type 5 subunit alpha, sequence (Q14524 whole entry): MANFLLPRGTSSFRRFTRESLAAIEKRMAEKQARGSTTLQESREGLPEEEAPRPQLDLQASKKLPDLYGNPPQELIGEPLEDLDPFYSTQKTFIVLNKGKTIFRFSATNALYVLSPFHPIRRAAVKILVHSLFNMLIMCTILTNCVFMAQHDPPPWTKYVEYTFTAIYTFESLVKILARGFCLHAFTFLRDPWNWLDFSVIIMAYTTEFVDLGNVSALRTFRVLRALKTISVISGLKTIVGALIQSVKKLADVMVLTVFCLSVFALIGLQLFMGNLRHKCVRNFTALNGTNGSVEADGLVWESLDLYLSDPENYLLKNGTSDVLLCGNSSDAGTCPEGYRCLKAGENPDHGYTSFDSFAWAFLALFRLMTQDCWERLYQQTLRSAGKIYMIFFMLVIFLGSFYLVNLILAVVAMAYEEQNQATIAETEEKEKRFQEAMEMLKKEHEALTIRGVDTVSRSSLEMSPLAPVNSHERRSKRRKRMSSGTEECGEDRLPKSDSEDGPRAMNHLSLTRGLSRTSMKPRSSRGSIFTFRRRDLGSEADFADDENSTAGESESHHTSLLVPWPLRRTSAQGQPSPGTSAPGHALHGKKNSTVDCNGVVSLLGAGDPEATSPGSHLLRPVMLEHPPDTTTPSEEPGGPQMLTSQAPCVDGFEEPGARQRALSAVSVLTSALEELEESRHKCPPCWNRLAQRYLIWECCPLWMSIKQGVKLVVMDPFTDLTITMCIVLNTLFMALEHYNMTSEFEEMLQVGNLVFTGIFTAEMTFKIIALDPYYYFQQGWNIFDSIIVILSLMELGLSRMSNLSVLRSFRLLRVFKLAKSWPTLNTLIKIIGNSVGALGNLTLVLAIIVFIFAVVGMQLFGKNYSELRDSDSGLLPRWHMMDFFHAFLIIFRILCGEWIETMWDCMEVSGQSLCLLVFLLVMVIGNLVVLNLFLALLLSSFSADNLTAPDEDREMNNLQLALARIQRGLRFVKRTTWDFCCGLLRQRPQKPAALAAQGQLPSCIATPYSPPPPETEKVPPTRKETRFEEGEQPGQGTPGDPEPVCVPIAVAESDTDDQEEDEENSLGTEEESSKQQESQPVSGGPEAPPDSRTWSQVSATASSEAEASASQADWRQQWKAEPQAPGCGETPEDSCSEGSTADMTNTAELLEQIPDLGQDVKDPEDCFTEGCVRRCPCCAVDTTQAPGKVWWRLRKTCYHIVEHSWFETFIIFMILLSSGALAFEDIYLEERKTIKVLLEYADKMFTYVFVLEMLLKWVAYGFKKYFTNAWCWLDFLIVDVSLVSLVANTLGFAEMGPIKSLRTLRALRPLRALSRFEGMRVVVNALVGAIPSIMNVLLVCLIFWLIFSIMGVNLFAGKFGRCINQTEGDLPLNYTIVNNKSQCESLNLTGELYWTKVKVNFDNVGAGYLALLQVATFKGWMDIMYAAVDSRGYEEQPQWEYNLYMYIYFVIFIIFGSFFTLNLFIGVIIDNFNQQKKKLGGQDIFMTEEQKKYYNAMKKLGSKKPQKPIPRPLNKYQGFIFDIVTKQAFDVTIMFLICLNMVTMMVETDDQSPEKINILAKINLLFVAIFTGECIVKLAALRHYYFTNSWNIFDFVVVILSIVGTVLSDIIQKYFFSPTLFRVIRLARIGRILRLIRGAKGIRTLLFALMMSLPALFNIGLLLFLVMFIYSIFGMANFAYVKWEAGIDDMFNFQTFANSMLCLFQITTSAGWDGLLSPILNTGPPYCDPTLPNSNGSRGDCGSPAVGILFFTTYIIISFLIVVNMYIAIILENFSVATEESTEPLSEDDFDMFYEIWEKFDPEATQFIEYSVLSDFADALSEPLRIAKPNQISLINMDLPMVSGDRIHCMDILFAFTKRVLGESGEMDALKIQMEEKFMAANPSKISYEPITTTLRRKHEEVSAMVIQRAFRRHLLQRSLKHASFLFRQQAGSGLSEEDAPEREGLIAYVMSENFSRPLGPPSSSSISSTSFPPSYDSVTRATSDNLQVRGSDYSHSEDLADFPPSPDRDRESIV
Sodium channel protein type 9 subunit alpha, sequence (Q15858 whole entry, looked up): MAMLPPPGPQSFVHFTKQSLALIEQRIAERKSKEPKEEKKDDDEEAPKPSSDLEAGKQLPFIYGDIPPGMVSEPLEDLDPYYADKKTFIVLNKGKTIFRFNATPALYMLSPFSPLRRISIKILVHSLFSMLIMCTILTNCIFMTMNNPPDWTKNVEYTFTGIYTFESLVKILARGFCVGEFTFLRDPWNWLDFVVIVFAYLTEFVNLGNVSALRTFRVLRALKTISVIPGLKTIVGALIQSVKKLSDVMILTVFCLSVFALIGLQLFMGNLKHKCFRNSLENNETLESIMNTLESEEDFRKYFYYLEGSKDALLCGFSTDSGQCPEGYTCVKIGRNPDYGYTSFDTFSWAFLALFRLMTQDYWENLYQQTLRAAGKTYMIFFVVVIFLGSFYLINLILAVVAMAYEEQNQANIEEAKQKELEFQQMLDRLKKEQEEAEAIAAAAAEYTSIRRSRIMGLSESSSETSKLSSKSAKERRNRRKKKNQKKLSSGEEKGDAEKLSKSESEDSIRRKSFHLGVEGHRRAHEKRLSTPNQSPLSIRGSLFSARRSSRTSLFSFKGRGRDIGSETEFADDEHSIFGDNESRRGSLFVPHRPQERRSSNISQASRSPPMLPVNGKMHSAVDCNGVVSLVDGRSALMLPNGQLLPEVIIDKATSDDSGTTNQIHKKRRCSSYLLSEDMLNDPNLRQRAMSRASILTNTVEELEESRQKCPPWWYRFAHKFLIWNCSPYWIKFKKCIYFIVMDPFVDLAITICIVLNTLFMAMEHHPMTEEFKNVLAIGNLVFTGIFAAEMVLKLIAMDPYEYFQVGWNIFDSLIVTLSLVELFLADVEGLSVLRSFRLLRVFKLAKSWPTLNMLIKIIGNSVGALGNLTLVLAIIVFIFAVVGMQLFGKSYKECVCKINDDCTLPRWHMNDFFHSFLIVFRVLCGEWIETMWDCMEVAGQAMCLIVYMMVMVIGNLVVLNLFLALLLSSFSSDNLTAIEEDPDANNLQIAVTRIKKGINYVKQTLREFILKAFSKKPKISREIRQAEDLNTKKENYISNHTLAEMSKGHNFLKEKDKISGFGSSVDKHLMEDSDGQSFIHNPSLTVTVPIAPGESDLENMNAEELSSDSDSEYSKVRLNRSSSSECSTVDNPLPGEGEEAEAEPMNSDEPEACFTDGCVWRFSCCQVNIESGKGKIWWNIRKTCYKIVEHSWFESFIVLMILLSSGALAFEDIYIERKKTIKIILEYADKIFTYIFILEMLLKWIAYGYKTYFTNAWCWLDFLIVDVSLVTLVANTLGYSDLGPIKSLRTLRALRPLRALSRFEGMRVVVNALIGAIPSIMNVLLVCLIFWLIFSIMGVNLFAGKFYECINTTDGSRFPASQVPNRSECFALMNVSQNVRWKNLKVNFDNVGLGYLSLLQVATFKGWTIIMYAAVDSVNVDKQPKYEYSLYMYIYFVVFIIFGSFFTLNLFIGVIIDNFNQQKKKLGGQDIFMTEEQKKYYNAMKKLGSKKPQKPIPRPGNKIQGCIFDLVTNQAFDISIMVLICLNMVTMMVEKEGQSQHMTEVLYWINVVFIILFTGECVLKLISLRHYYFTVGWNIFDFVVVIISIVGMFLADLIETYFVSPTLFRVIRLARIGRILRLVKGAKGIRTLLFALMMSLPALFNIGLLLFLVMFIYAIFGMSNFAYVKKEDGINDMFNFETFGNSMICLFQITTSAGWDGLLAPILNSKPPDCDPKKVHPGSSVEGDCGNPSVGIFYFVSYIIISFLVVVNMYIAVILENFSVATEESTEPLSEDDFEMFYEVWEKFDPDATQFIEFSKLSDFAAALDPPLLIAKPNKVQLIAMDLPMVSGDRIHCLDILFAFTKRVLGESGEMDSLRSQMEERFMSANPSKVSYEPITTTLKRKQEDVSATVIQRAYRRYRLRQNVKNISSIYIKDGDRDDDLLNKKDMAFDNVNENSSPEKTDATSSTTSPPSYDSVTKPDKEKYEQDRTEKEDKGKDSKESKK

Compound | solubility [2] | Papp [3] | logD [5] | Papp [7] | CLH [12] | CLH [13] | IC50 [4] | IC50 [6] | other results
O=C(c1ccc2cc(Oc3ccc(C(F)(F)F)cn3)ccc2n1)N1CCCC1 |  |  |  |  |  |  |  | 33 µM | 
O=C(c1ccc2cc(Oc3ccc(C(F)(F)F)cn3)ccc2n1)N1CC[C@H](F)C1 | 55 µM (≈ 22.3 µg/mL) |  |  | 31.6 ×10⁻⁶ cm/s |  |  |  | 33 µM | clearance [1]: 12.8 mL/min/kg; half-life [8]: 220 min; Vdss [9]: 6.47 L/kg; bioavailability [10]: 104%
O=C(c1ccc2cc(Oc3ccc(OC(F)(F)F)cn3)ccc2n1)N1CCNCC1 | 150 µM (≈ 62.8 µg/mL) |  | 3.4 | 5.1 ×10⁻⁶ cm/s |  |  | 12.8 µM |  | half-life [8]: 756 min; bioavailability [10]: 92%
O=C(c1ccc2cc(Oc3cnc(C(F)(F)F)cn3)ccc2n1)N1CCNCC1 | 149 µM (≈ 60.1 µg/mL) |  | 2.7 | 3.8 ×10⁻⁶ cm/s |  |  | 18.6 µM |  | efflux ratio [11]: 16.1
O=C(N[C@H]1C[C@@H](O)C1)c1ccc2cc(Oc3ccc(C(F)(F)F)cn3)ccc2n1 | 10 µM (≈ 4.03 µg/mL) |  |  | 19.5 ×10⁻⁶ cm/s |  |  |  | 33 µM | clearance [1]: 60.3 mL/min/kg; bioavailability [10]: 23%
O=C(c1ccc2cc(Oc3ccc(C(F)(F)F)cn3)ccc2n1)N1CCC1 |  |  |  |  |  |  |  | 33 µM | 
O=C(c1ccc2cc(Oc3ccc(F)cn3)ccc2n1)N1CCNCC1 | 150 µM (≈ 52.9 µg/mL) |  |  |  |  |  | 17 µM |  | 
O=C(NC1CC(F)C1)c1ccc2cc(Oc3ccc(C(F)(F)F)cn3)ccc2n1 (stereo not drawn) | 5 µM (≈ 2.03 µg/mL) |  |  | 16.7 ×10⁻⁶ cm/s |  |  |  | 33 µM | 
O=C(c1ccc2cc(Oc3ccc(C(F)(F)F)cn3)ccc2n1)N1CCNC(C(F)(F)F)C1 (stereo not drawn) | 78 µM (≈ 36.7 µg/mL) |  |  | 24.3 ×10⁻⁶ cm/s |  |  |  | 33 µM | clearance [1]: 40.5 mL/min/kg; half-life [8]: 190 min; Vdss [9]: 9.23 L/kg; bioavailability [10]: 106%
CS(=O)(=O)C1CN(C(=O)c2ccc3cc(Oc4ccc(C(F)(F)F)cn4)ccc3n2)C1 | 18 µM (≈ 8.13 µg/mL) |  |  | 21.5 ×10⁻⁶ cm/s |  |  |  |  | half-life [8]: 204 min; bioavailability [10]: 126%
O=C(c1ccc2cc(Oc3cc(C(F)(F)F)ccn3)ccc2n1)N1CCNCC1 | 200 µM (≈ 80.5 µg/mL) | 49 ×10⁻⁶ cm/s | 3.4 |  |  |  | 7.3 µM |  | clearance [1]: 115 mL/min/kg; bioavailability [10]: 91%
CC(=O)c1ccc(Oc2ccc3nc(C(=O)N4CCNCC4)ccc3c2)cc1 | 145 µM (≈ 54.4 µg/mL) | 19.7 ×10⁻⁶ cm/s | 3.1 |  |  |  | 23.6 µM |  | half-life [8]: 198 min; bioavailability [10]: 54%
N#Cc1ccc(Oc2ccc3nc(C(=O)N4CCNCC4)ccc3c2)cc1 | 194 µM (≈ 69.5 µg/mL) | 0.4 ×10⁻⁶ cm/s | 2.6 |  |  |  | 5.2 µM |  | clearance [1]: < 33.3 mL/min/kg; bioavailability [10]: 89%
O=C(NC1CCOC1)c1ccc2cc(Oc3ccc(C(F)(F)F)cn3)ccc2n1 (stereo not drawn) |  |  |  |  |  |  |  | 33 µM | 
O=C(NC1CC(F)(F)C1)c1ccc2cc(Oc3ccc(C(F)(F)F)cn3)ccc2n1 | 5 µM (≈ 2.12 µg/mL) |  |  | 12.1 ×10⁻⁶ cm/s |  |  |  | 33 µM | bioavailability [10]: 82%
O=C(c1ccc2cc(Oc3ccc(C(F)(F)F)cn3)ccc2n1)N1CCN(CC(F)(F)F)CC1 | 46 µM (≈ 22.3 µg/mL) | 24.6 ×10⁻⁶ cm/s |  |  |  |  |  | 33 µM | 
O=C(c1ccc2cc(Oc3ccc(S(=O)(=O)C(F)(F)F)cc3)ccc2n1)N1CCNCC1 | 150 µM (≈ 69.8 µg/mL) |  | 3.8 | 0.8 ×10⁻⁶ cm/s |  |  | 4.27 µM |  | efflux ratio [11]: 45.5
O=C(COc1ccc2cc(Oc3ccccn3)ccc2n1)N1CCNCC1 | 200 µM (≈ 72.9 µg/mL) | 29.4 ×10⁻⁶ cm/s | 2.7 |  | 12 L/h/kg | 11 L/h/kg |  |  | 
N#Cc1ccc(Oc2ccc3c(ccc(=O)n3CCN3CCCCC3)c2)cc1 | 140 µM (≈ 52.3 µg/mL) |  | 3.4 | 3.7 ×10⁻⁶ cm/s | 38 L/h/kg | 9 L/h/kg | < 1 µM | 1.6 µM | Cp [14]: 0.47 µg/mL; Cp [15]: 1.27 µg/mL; clearance [1]: 52.7 mL/min/kg; IC50 [16]: 2280 nM; MPE [17]: 53%; Cp [18]: 0.29 µg/mL; IC50 [19]: 80 nM; Kp uu [20]: 0.45; Ct [21]: 0.56 µg/mL; MPE [22]: 54%; Ct [23]: 1.05 µg/mL; bioavailability [10]: 17%; MPE [24]: 89%; Ct [25]: 3.38 µg/mL; IC50 [26]: 3.4 µM
CN1CCN(C(=O)COc2ccc3cc(Oc4ccc(C(F)(F)F)cn4)ccc3n2)CC1 | 200 µM (≈ 89.3 µg/mL) |  |  |  | 58 L/h/kg | 6 L/h/kg |  |  | 
N#Cc1ccc(Oc2ccc3nc(OCCN4CCCCC4)ccc3c2)cc1 |  |  | 3.5 |  | 13 L/h/kg | 3 L/h/kg | < 1 µM |  | 
O=C1CN(C(=O)COc2ccc3cc(Oc4ccc(C(F)(F)F)cn4)ccc3n2)CCN1 | 23 µM (≈ 10.3 µg/mL) | 44.1 ×10⁻⁶ cm/s | 3.2 |  | < 3.7 L/h/kg | < 3.4 L/h/kg |  |  | 

The next lines start with results.

solubility [2] | Papp [3] | logD [5] | Papp [7] | CLH [12] | CLH [13] | Compound | IC50 [4] | IC50 [6] | other results
200 µM (≈ 80.5 µg/mL) | 52.2 ×10⁻⁶ cm/s | 3 |  |  |  | O=C(c1ccc2cc(Oc3cccc(C(F)(F)F)n3)ccc2n1)N1CCNCC1 | 12.8 µM |  | clearance [1]: 83.3 mL/min/kg
5 µM (≈ 2.09 µg/mL) |  |  | 32.7 ×10⁻⁶ cm/s |  |  | O=C(N[C@@H]1CCOC1=O)c1ccc2cc(Oc3ccc(C(F)(F)F)cn3)ccc2n1 |  | 33 µM | 
200 µM (≈ 69.7 µg/mL) | 8 ×10⁻⁶ cm/s | 1.1 |  |  |  | CN1CCN(C(=O)c2ccc3cc(Oc4ccccn4)ccc3n2)CC1 | 16.8 µM |  | clearance [1]: 70 mL/min/kg
138 µM (≈ 55.7 µg/mL) |  | 2.1 | 1.5 ×10⁻⁶ cm/s |  |  | O=C(c1ccc2cc(Oc3ncc(C(F)(F)F)cn3)ccc2n1)N1CCNCC1 |  |  | 
140 µM (≈ 56.2 µg/mL) |  | 4 | 2.1 ×10⁻⁶ cm/s |  |  | O=C(c1ccc2cc(Oc3ccc(C(F)(F)F)cc3)ccc2n1)N1CCNCC1 | 5.91 µM |  | efflux ratio [11]: 3.7
5 µM (≈ 2.05 µg/mL) |  |  | 3.04 ×10⁻⁶ cm/s |  |  | O=C(c1ccc2cc(Oc3ccc(C(F)(F)F)cn3)ccc2n1)N1CC(F)(F)C1 |  | 10.2 µM | 
5 µM (≈ 1.94 µg/mL) |  |  | 3.4 ×10⁻⁶ cm/s |  |  | O=C(NC1CCC1)c1ccc2cc(Oc3ccc(C(F)(F)F)cn3)ccc2n1 |  | 31.3 µM | 
143 µM (≈ 53.3 µg/mL) |  | 2.9 | 2.7 ×10⁻⁶ cm/s |  |  | N#Cc1ccc(COc2ccc3nc(C(=O)N4CCNCC4)ccc3c2)cc1 | 5.61 µM |  | efflux ratio [11]: 23.4
 | 30.1 ×10⁻⁶ cm/s | 3.4 |  | < 3 L/h/kg | 3 L/h/kg | N#Cc1ccc(Oc2ccc3nc(OCC(=O)N4CCOCC4)ccc3c2)cc1 |  |  | 
57.5 µM (≈ 20.3 µg/mL) | 8.7 ×10⁻⁶ cm/s | 2.2 |  | < 2.7 L/h/kg | 2 L/h/kg | NC(=O)CNC(=O)COc1ccc2cc(Oc3ccccn3)ccc2n1 | 30 µM |  | 
 |  |  | 16.1 ×10⁻⁶ cm/s | 6 L/h/kg | 2 L/h/kg | N#Cc1ccc(-c2ccc3c(ccc(=O)n3CC(=O)N3CCCCC3)c2)cc1 | 17 µM |  | 
48 µM (≈ 20.7 µg/mL) | 38.6 ×10⁻⁶ cm/s |  |  | 55 L/h/kg | 14 L/h/kg | O=C(COc1ccc2cc(Oc3ccc(C(F)(F)F)cn3)ccc2n1)N1CCCCC1 |  |  | 
 |  |  | 8.3 ×10⁻⁶ cm/s | 6 L/h/kg | 2 L/h/kg | N#Cc1ccc(-c2ccc3c(ccc(=O)n3CCN3CCCCC3)c2)cc1 | < 1 µM |  | 
0.824 µM (≈ 0.31 µg/mL) | 12.8 ×10⁻⁶ cm/s | 3 |  | < 3 L/h/kg | 2 L/h/kg | N#Cc1ccc(Oc2ccc3nc(OCC(=O)NCC(N)=O)ccc3c2)cc1 | > 30 µM |  | efflux ratio [11]: 14.9
141 µM (≈ 56.7 µg/mL) | 32.1 ×10⁻⁶ cm/s | 3.1 |  | < 3 L/h/kg | < 2 L/h/kg | N#Cc1ccc(Oc2ccc3nc(OCC(=O)N4CCNC(=O)C4)ccc3c2)cc1 |  |  | 
200 µM (≈ 75.7 µg/mL) | 22 ×10⁻⁶ cm/s |  |  | < 3.9 L/h/kg | 3.9 L/h/kg | O=C1CN(C(=O)COc2ccc3cc(Oc4ccccn4)ccc3n2)CCN1 | 30 µM |  | 
156 µM (≈ 56.7 µg/mL) | 66.9 ×10⁻⁶ cm/s | 3.6 |  | 144 L/h/kg | 6 L/h/kg | O=C(COc1ccc2cc(Oc3ccccn3)ccc2n1)N1CCCCC1 | 30 µM |  | 
